Data reported in patent US9809609B2, “Water-soluble benzoazepine compound and its pharmaceutical composition” (OTSUKA PHARMACEUTICAL CO., LTD., priority 2005, dated 2017).
Values after ≈ are worked out from the molar mass of the structure shown. Marks after values point to notes of the source that are not given here. One block for each molecule: values may come before it.

What was measured:
[1] = Solubility of salt of compound (1) in water at 37° C.; format: physicochemical; settings: thermodynamic from solid, shaking at 37° C. for 30 minutes
Protocol: A suitable amount of test compound is added to a test tube, and 2.5 ml of water is added thereto. After shaking at 37° C. for 30 minutes, the mixture is filtered through a 0.45-μm membrane filter, and 0.5 ml of the filtrate is accurately weighed. Mobile phase is added thereto to make exactly 50 ml, preparing a test solution (dilution ratio: 100-fold). Approximately 5 mg of free-form authentic sample is accurately weighed, and acetonitrile is added thereto to make exactly 50 ml. A 2 ml of this liquid is accurately weighed, and mobile phase is added thereto to make exactly 20 ml, preparing a standard solution (equivalent to 10 μg/ml). By liquid chromatography under the following conditions, 20 μl of both the test solution and standard solution are tested to obtain the peak areas At and As of the test solution and standard solution. Concentration(μg/ml)=Ws/5×10×At/As×100=Ws×At/As×200 Ws: weighed amount of authentic sample (mg) Test Conditions • Detection: ultraviolet absorption photometer • (measurement wavelength: 254 nm) • Column: TOSOH TSKgel ODS-80Ts (0.46 cm×15 cm) • Column temperature: constant temperature of approximately 40° C. • Mobile phase: water/acetonitrile/trifluoroacetic acid=500/500/1 • Flow rate: 1 ml/min

[2] = Solubility of tolvaptan in Britton-Robinson buffer and purified water; format: physicochemical; settings: thermodynamic from solid, shaken 4 hours
Protocol: Tolvaptan was added in excess to Britton-Robinson buffer (pH 2, pH 7, or pH 12) or purified water, and then shaken at 25° C.±1° C. for 4 hours. Each solution was filtered through a filter, and then, using HPLC, the solubility of tolvaptan was quantified by absolute calibration.

[3] = Solubility of compound (1b) in buffer solution (room temperature); format: physicochemical; settings: for Solubility of compound (1b): crystals could not be added in excess; for solubility thermodynamic at 16 days: thermodynamic from solid, shaken 16 days
[4] = Serum concentration of tolvaptan in female rats after tail-vein administration of a compound (1b) solution; format: in vivo; settings: dose producing 1 mg of tolvaptan per kg of body weight
Protocol: A solution of compound (1b) (equivalent to 1 mg of tolvaptan per ml of solution) was prepared. [table] A 79 mg quantity of sodium dihydrogenphosphate•dihydrate and 5 g of mannitol were dissolved in about 90 ml of water for injection. A sodium hydroxide solution was added thereto, and a solution of pH 7 was prepared. Compound (1b) equivalent to 100 mg of tolvaptan was dissolved in this solution. A sodium hydroxide solution was added thereto, and the pH was adjusted to 7. […] This solution was rapidly administered to female rats via the tail vein at a dose such that 1 mg of tolvaptan is produced per kg of body weight. From time to time, blood was collected from the jugular vein under light ethyl ether anesthesia, and serum concentration of tolvaptan was determined by high-speed liquid chromatography (HPLC).

Compound: COP(=O)(NCCO)OC1CCCN(C(=O)c2ccc(NC(=O)c3ccccc3C)cc2C)c2ccc(Cl)cc21 (stereo not shown) [Example 20]
- solubility at 30 min [1]: > 1000 µg/mL

Compound: Cc1ccccc1C(=O)Nc1ccc(C(=O)N2CCCC(OP(=O)([O-])[O-])c3cc(Cl)ccc32)c(C)c1.[Mg+2] (stereo not shown) [Example 7]
- solubility at 30 min [1]: > 1000 µg/mL

Compound: Cc1ccccc1C(=O)Nc1ccc(C(=O)N2CCCC(OP(=O)([O-])O)c3cc(Cl)ccc32)c(C)c1.[Na+] (stereo not shown) [Example 8]
- solubility at 30 min [1]: > 1000 µg/mL

Compound: Cc1ccccc1C(=O)Nc1ccc(C(=O)N2CCCC(OP(=O)([O-])O)c3cc(Cl)ccc32)c(C)c1.[K+] (stereo not shown) [Example 11]
- solubility at 30 min [1]: > 1000 µg/mL

More lines, now with the values ahead:

- solubility thermodynamic at 4 h ([2]; aqueous buffer, Britton-Robinson buffer pH 2, 25° C.±1° C.): 0.2 µg/mL (≈ 0.000445 mM)
- solubility thermodynamic at 4 h ([2]; aqueous buffer, Britton-Robinson buffer pH 7, 25° C.±1° C.): 0.3 µg/mL (≈ 0.000668 mM)
- solubility thermodynamic at 4 h ([2]; aqueous buffer, Britton-Robinson buffer pH 12, 25° C.±1° C.): 0.2 µg/mL (≈ 0.000445 mM)
- solubility thermodynamic at 4 h ([2]; purified water, 25° C.±1° C.): 0.2 µg/mL (≈ 0.000445 mM)
Compound: Cc1ccccc1C(=O)Nc1ccc(C(=O)N2CCCC(O)c3cc(Cl)ccc32)c(C)c1 (stereo not shown) [tolvaptan, Tolvaptan]

- Solubility of compound (1b) ([3]; Citric acid buffer (100 mM), pH before dissolution 8, pH after dissolution 4.2, room temperature): at least 8.3* w/v %
- Solubility of compound (1b) ([3]; Sodium hydrogencarbonate buffer (100 mM), pH before dissolution 8, pH after dissolution 3.1, room temperature): at least 7.1* w/v %
- Solubility of compound (1b) ([3]; Sodium phosphate buffer (100 mM), pH before dissolution 8, pH after dissolution 3.3, room temperature): at least 7.1* w/v %
- Solubility of compound (1b) ([3]; Sodium phosphate buffer (100 mM), pH before dissolution 9, pH after dissolution 3.3, room temperature): at least 7.4* w/v %
- Solubility of compound (1b) ([3]; Sodium phosphate buffer (100 mM), pH before dissolution 10, pH after dissolution 3.4, room temperature): at least 6.5* w/v %
- Solubility of compound (1b) ([3]; Tris buffer (100 mM), pH before dissolution 9, pH after dissolution 3.4, room temperature): at least 6.3* w/v %
- solubility thermodynamic at 16 days ([3]; Tris/HCl buffer, pH 8, aqueous buffer, Tris buffer (100 mM), pH before dissolution 8, pH after dissolution 2.9, room temperature): 7400 µg/mL (≈ 14 mM)
- solubility thermodynamic at 16 days ([3]; pH 5, aqueous buffer, Sodium phosphate buffer (100 mM), pH before dissolution 5, pH after dissolution 3.0, room temperature): 5800 µg/mL (≈ 11 mM)
- solubility thermodynamic at 16 days ([3]; pH 6, aqueous buffer, Sodium phosphate buffer (100 mM), pH before dissolution 6, pH after dissolution 3.0, room temperature): 13100 µg/mL (≈ 24.8 mM)
- solubility thermodynamic at 16 days ([3]; pH 7, aqueous buffer, Sodium phosphate buffer (100 mM), pH before dissolution 7, pH after dissolution 3.1, room temperature): 7600 µg/mL (≈ 14.4 mM)
- solubility at 30 min [1]: > 1000 µg/mL
- melting point: 150 to 152 °C
- Time at which tolvaptan was initially detected in serum after intravenous administration ([4]; rapid tail-vein administration of compound (1b) solution): five
- Hydrolysis of compound (1b) into tolvaptan in rats ([4]; tail-vein administration): rapidly hydrolyzed into tolvaptan
Compound: Cc1ccccc1C(=O)Nc1ccc(C(=O)N2CCCC(OP(=O)(O)O)c3cc(Cl)ccc32)c(C)c1 (stereo not shown) [compound (1b)]
